Where two headings read alike, the source gives them in different places.
Assays:
Assay type in all cases: cell-based
[1] = system: A2780 human ovarian cancer cell line; assay: Antiproliferative bioassay, A2780 ovarian cancer cell line; conditions: for IC50: read-out: IC50 (μM) A2780, A2780 ovarian cancer cells, mean of three replicates
[2] = system: H522 lung cancer cell line; assay: Antiproliferative bioassay, H522 lung cancer cell line
[3] = system: A2058 melanoma cell line; assay: Antiproliferative bioassay, A2058 melanoma cell line
[4] = read-out: IC50 (μM) H522, H522 lung cancer cells

Row | IC50 [1] | IC50 [2, 4] | IC50 ([3]; Homo sapiens, A2058, read-out: IC50 (μM) A2058) | IC50 ([2]; Homo sapiens, NCI-H522, read-out: IC50 (μM) H522) | IC50 ([3]; read-out: IC50 (μM) A2058, A2058 melanoma cells) | Compound | inhibition of the proliferation of A2780 cells (in words) [1]
1 | 1.7 ± 0.1 µM | > 10 µM | – | – | – | oleanolic acid-3-O-β-D-glucopyranosyl-(1→3)-(2″-O-acetyl)-β-D-glucopyranoside [Compound 2] | selectively inhibit the proliferation of A2780 ovarian cancer cells
2 | – | – | 0.004 µM | 0.009 µM | – | CC[C@]1(O)C[C@@H]2CN(CCc3c([nH]c4ccccc34)[C@@](C(=O)OC)(c3cc4c(cc3OC)N(C)[C@H]3[C@@](O)(C(=O)OC)[C@H](OC(C)=O)[C@]5(CC)C=CCN6CC[C@]43[C@@H]65)C2)C1 [Vinblastine, reference compound] | –
3 | 2.2 ± 0.2 µM | 7.32 µM | – | – | 7.63 µM | oleanolic acid-3-O-β-D-glucopyranosyl- (1→3)-β-D-glucopyranoside [Compound 1] | –
4 | 1.2 ± 0.3 µM | > 10 µM | – | – | – | CC(=O)OC[C@H]1O[C@@H](O[C@H]2CC[C@]3(C)[C@H]4CC=C5[C@@H]6CC(C)(C)CC[C@]6(C(=O)O)CC[C@@]5(C)[C@]4(C)CC[C@H]3C2(C)C)[C@H](O)[C@@H](O[C@@H]2O[C@H](CO)[C@@H](O)[C@H](O)[C@H]2O)[C@@H]1O [Compound 3, oleanolic acid-3-O-β-D-glucopyranosyl-(1→3)-(6″-O-acetyl)-β-D-glucopyranoside] | selectively inhibit the proliferation of A2780 ovarian cancer cells

Reference: PMC3928794 (Chemistry & biodiversity, 2013)
